US20200113181A1, “HERBICIDAL COMPOUNDS” (SYNGENTA PARTICIPATIONS AG, priority 2016, published 2020)

What was measured:
Format in all cases: in vivo
Setaria faberi (SETFA) = test: Glasshouse herbicide test, pre- and post-emergence, Setaria faberi; details: 250 g/h, evaluated after 13 days; for SETFA POST, percentage damage caused to the plant (five point scale): post-emergence; for SETFA PRE, percentage damage caused to the plant (five point scale): pre-emergence
Procedure: (§1) Seeds of a variety of test species are sown in standard soil in pots (Lolium perenne (LOLPE), Setaria faberi (SETFA), Alopecurus myosuroides (ALOMY), Echinochloa crus-galli (ECHCG), Avena fatua (AVEFA)). After cultivation for one day (pre-emergence) or after 8 days cultivation (post-emergence) under controlled conditions in a glasshouse (at 24/16° C., day/night; 14 hours light; 65% humidity), the plants are sprayed with an aqueous spray solution derived from the formulation of the technical active ingredient in acetone/water (50:50) solution containing 0.5% Tween 20 (polyoxyethelyene sorbitan monolaurate, CAS RN 9005-64-5). Compounds are applied at […]. The test plants are then grown in a glasshouse under controlled conditions in a glasshouse (at 24/16° C., day/night; 14 hours light; 65% humidity) and watered twice daily. After 13 days for pre and post-emergence, the test is evaluated for the percentage damage caused to the plant. The biological activities are shown in the following table on a five point scale (5=80-100%; 4=60-79%; 3=40-59%; 2=20-39%; 1=0-19%).

[1] = system: Alopecurus myosuroides (ALOMY); test: Glasshouse herbicide test, pre- and post-emergence, Alopecurus myosuroides; details: 250 g/h, evaluated after 13 days; for ALOMY POST, percentage damage caused to the plant (five point scale): post-emergence; for ALOMY PRE, percentage damage caused to the plant (five point scale): pre-emergence
Procedure: as §1

[2] = system: Echinochloa crus-galli (ECHCG); test: Glasshouse herbicide test, pre- and post-emergence, Echinochloa crus-galli; details: 250 g/h, evaluated after 13 days; for ECHCG POST, percentage damage caused to the plant (five point scale): post-emergence; for ECHCG PRE, percentage damage caused to the plant (five point scale): pre-emergence
Procedure: as §1

Avena fatua (AVEFA) = test: Glasshouse herbicide test, pre- and post-emergence, Avena fatua; details: 250 g/h, evaluated after 13 days; for AVEFA POST, percentage damage caused to the plant (five point scale): post-emergence; for AVEFA PRE, percentage damage caused to the plant (five point scale): pre-emergence
Procedure: as §1

Lolium perenne (LOLPE) = test: Glasshouse herbicide test, pre- and post-emergence, Lolium perenne; details: 250 g/h, evaluated after 13 days; for LOLPE POST, percentage damage caused to the plant (five point scale): post-emergence; for LOLPE PRE, percentage damage caused to the plant (five point scale): pre-emergence
Procedure: as §1

| SMILES | SETFA POST, percentage damage caused to the plant (five point scale) (Setaria faberi (SETFA)) | SETFA PRE, percentage damage caused to the plant (five point scale) (Setaria faberi (SETFA)) | ALOMY POST, percentage damage caused to the plant (five point scale) [1] | ALOMY PRE, percentage damage caused to the plant (five point scale) [1] | ECHCG POST, percentage damage caused to the plant (five point scale) [2] | ECHCG PRE, percentage damage caused to the plant (five point scale) [2] | AVEFA POST, percentage damage caused to the plant (five point scale) (Avena fatua (AVEFA)) | AVEFA PRE, percentage damage caused to the plant (five point scale) (Avena fatua (AVEFA)) | LOLPE POST, percentage damage caused to the plant (five point scale) (Lolium perenne (LOLPE)) | LOLPE PRE, percentage damage caused to the plant (five point scale) (Lolium perenne (LOLPE)) |
| --- | --- | --- | --- | --- | --- | --- | --- | --- | --- | --- |
| CC#Cc1ccc(C2=C(OC(=O)C(C)(C)C)[C@@H]3[C@H](C2=O)[C@@H]2O[C@H]3C[C@@H]2COC)c(OC)c1 (racemic) [Compound 1.26] | 5 (5=80-100%) | 5 (5=80-100%) | 5 (5=80-100%) | 5 (5=80-100%) | 5 (5=80-100%) | 5 (5=80-100%) | 5 (5=80-100%) | 5 (5=80-100%) | 5 (5=80-100%) | 5 (5=80-100%) |
| CC#Cc1ccc(C2=C(OC(=O)C(C)C)[C@@H]3[C@H](C2=O)[C@@H]2O[C@H]3C[C@@H]2COC)c(OC)c1 (racemic) [Compound 1.27] | 5 (5=80-100%) | 5 (5=80-100%) | 5 (5=80-100%) | 5 (5=80-100%) | 5 (5=80-100%) | 5 (5=80-100%) | 5 (5=80-100%) | 5 (5=80-100%) | 5 (5=80-100%) | 5 (5=80-100%) |
| CC#Cc1ccc(C2=C(OC(=O)OC)[C@@H]3[C@H](C2=O)[C@@H]2O[C@H]3C[C@@H]2COC)c(OC)c1 (racemic) [Compound 1.28] | 5 (5=80-100%) | 5 (5=80-100%) | 5 (5=80-100%) | 5 (5=80-100%) | 5 (5=80-100%) | 5 (5=80-100%) | 5 (5=80-100%) | 5 (5=80-100%) | 5 (5=80-100%) | 5 (5=80-100%) |
| CC#Cc1ccc(C2=C(OC(C)=O)[C@@H]3[C@H](C2=O)[C@@H]2O[C@H]3C[C@@H]2COC)c(OC)c1 (racemic) [Compound 1.29] | 5 (5=80-100%) | 5 (5=80-100%) | 5 (5=80-100%) | 5 (5=80-100%) | 5 (5=80-100%) | 5 (5=80-100%) | 5 (5=80-100%) | 5 (5=80-100%) | 5 (5=80-100%) | 5 (5=80-100%) |
| CC#Cc1ccc(C2C(=O)[C@@H]3[C@H](C2=O)[C@H]2CC[C@@H]3O2)c(OCC)c1 (mixture of isomers) [Compound 1.30] | – | 5 (5=80-100%) | 5 (5=80-100%) | 5 (5=80-100%) | 5 (5=80-100%) | 5 (5=80-100%) | 5 (5=80-100%) | 5 (5=80-100%) | 5 (5=80-100%) | 5 (5=80-100%) |
| CC#Cc1ccc(C2C(=O)[C@@H]3[C@H](C2=O)[C@H]2CC[C@@H]3O2)c(OCCC)c1 (mixture of isomers) [Compound 1.31] | 5 (5=80-100%) | 5 (5=80-100%) | 5 (5=80-100%) | 5 (5=80-100%) | 5 (5=80-100%) | 5 (5=80-100%) | 5 (5=80-100%) | 5 (5=80-100%) | 5 (5=80-100%) | 5 (5=80-100%) |
| CC#Cc1ccc(C2C(=O)[C@@H]3[C@H](C2=O)[C@H]2CC[C@@H]3O2)c(OCCOC)c1 (mixture of isomers) [Compound 1.32] | 5 (5=80-100%) | 3 (3=40-59%) | 4 (4=60-79%) | 1 (1=0-19%) | 5 (5=80-100%) | 3 (3=40-59%) | 5 (5=80-100%) | 4 (4=60-79%) | 5 (5=80-100%) | 4 (4=60-79%) |
| CC#Cc1ccc(C2C(=O)[C@@H]3[C@H](C2=O)[C@@H]2O[C@H]3C[C@]2(C)OC)c(OC)c1 (mixture of isomers) [Compound 1.33] | 5 (5=80-100%) | 5 (5=80-100%) | 5 (5=80-100%) | 5 (5=80-100%) | 5 (5=80-100%) | 5 (5=80-100%) | 5 (5=80-100%) | 5 (5=80-100%) | 5 (5=80-100%) | 5 (5=80-100%) |
| CC#Cc1ccc(C2C(=O)[C@@H]3[C@@H]4O[C@@H](C[C@@H]4COC)[C@@H]3C2=O)c(OC)c1 (stereo in doubt) [Compound 1.19, 8-methoxymethyl-4-[2-methoxy-4-(prop-1-yn-1-yl)phenyl]-10-oxatricyclo[5.2.1.0^2,6]decane-3,5-dione] | 5 (5=80-100%) | 5 (5=80-100%) | 5 (5=80-100%) | 5 (5=80-100%) | 5 (5=80-100%) | 5 (5=80-100%) | 5 (5=80-100%) | 5 (5=80-100%) | 5 (5=80-100%) | 5 (5=80-100%) |
| CC#Cc1ccc(C2C(=O)[C@@H]3[C@H](C2=O)[C@@]2(C)CC[C@]3(C)O2)c(OC)c1 (stereo partly shown) [Compound 1.11] | 5 (5=80-100%) | 3 (3=40-59%) | 5 (5=80-100%) | 5 (5=80-100%) | 5 (5=80-100%) | 3 (3=40-59%) | 5 (5=80-100%) | 3 (3=40-59%) | 5 (5=80-100%) | 4 (4=60-79%) |
| CC#Cc1ccc(C2C(=O)[C@H]3[C@@H]4CC[C@@](C)(O4)[C@H]3C2=O)c(OC)c1 (stereo partly shown) [Compound 1.21] | 5 (5=80-100%) | 4 (4=60-79%) | 4 (4=60-79%) | 4 (4=60-79%) | 5 (5=80-100%) | 3 (3=40-59%) | 5 (5=80-100%) | 4 (4=60-79%) | 4 (4=60-79%) | 4 (4=60-79%) |
